The source of these data is patent publication US10954214B2 (Janssen Pharmaceutica NV, priority 2016, dated 2021).

A word on the IC50: it is the concentration at which inhibition is half-maximal.

Assay [1] deals with full-length MALT1 protein (Strep-MALT1(1-824)-His) (Homo sapiens (Human), UniProt Q9UDY8). Nature of the assay: MALT1 Biochemical Protease Assay (Ac-LRSR-AMC substrate). Particulars: 10 nM FL MALT1, 200 μM Ac-LRSR-AMC, 4 h at RT; read-out: MALT1_Biochemical activity (Ac-LRSR-amc) IC50. The method in brief:
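Fluorescence from AMC release off the quenched LRSR substrate was read after a 4 h reaction at RT. Values were normalised to no-enzyme and uninhibited controls and fitted for IC50 and Hill coefficient.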

Assay [2] deals with IL6 secretion by OCI-LY3 ABC-DLBCL cells. In words: Human IL6 Mesoscale assay (OCI-LY3). Particulars: Homo sapiens, 24 h. In kind it is cell-based. In short, it runs like this: (§1)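 Read-out: MSD electrochemiluminescence of IL6/IL10 in supernatants. Cells (100,000/well, no beta-mercaptoethanol) were exposed to compounds at 15 μM down to 58.6 nM, 1:2 dilutions, for 24 h at 37° C, 5% CO2. Normalised between DMSO (high) and RN486 (low) controls.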

For assay [3], the system named is IL10 secretion by OCI-LY3 ABC-DLBCL cells. Nature of the assay: Human IL10 Mesoscale assay (OCI-LY3). In kind it is cell-based. To be noted: Homo sapiens, 24 h. The method in brief: as §1

Sequence of full-length MALT1 protein (Strep-MALT1(1-824)-His) (Q9UDY8 whole entry): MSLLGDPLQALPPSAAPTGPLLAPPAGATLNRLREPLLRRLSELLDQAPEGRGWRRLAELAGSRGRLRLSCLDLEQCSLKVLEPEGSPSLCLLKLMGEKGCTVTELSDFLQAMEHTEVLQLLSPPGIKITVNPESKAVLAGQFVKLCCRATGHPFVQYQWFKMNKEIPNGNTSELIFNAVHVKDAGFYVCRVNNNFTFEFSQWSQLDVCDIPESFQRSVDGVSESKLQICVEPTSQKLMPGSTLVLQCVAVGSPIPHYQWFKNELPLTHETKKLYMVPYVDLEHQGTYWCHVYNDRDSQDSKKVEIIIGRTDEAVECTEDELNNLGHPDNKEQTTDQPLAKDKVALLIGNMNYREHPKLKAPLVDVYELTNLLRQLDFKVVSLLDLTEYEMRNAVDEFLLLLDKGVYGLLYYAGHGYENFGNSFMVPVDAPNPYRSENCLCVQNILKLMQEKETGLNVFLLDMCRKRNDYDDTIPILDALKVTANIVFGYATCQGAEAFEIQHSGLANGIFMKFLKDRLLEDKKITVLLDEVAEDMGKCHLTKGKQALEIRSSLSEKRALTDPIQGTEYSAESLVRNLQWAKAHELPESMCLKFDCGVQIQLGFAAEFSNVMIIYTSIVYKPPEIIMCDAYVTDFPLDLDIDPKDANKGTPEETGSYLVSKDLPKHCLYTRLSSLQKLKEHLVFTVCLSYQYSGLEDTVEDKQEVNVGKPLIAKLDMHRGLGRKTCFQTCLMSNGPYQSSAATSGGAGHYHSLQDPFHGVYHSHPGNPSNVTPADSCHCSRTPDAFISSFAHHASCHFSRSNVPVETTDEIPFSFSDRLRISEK

Consider `COC(=O)c1ncc(NC(=O)c2cnn(-c3cccc4c(=O)[nH]ccc34)c2C(F)(F)F)cc1Cl` [Cpd 355, methyl 3-chloro-5-(1-(1-oxo-1,2-dihydroisoquinolin-5-yl)-5-(trifluoromethyl)-1H-pyrazole-4-carboxamido)picolinate], for which the values for the IC50 in assay [1], in assay [2] and in assay [3] were 10 nM, 912 nM and 407 nM, respectively.
Take `N#Cc1cc(NC(=O)c2cnn(-c3cccc4c(=O)[nH]ccc34)c2C(F)(F)F)ccn1` [Cpd 356, N-(2-cyanopyridin-4-yl)-1-(1-oxo-1,2-dihydroisoquinolin-5-yl)-5-(trifluoromethyl)-1H-pyrazole-4-carboxamide]: the IC50 in assay [1] was 123 nM; in assay [2], 295 nM; in assay [3] it was 209 nM.
`COCCOc1ncc(C(F)(F)F)cc1NC(=O)c1cnn(-c2cccc3c(=O)[nH]ccc23)c1C(F)(F)F` [Cpd 357, N-(2-(2-methoxyethoxy)-5-(trifluoromethyl)pyridin-3-yl)-1-(1-oxo-1,2-dihydroisoquinolin-5-yl)-5-(trifluoromethyl)-1H-pyrazole-4-carboxamide]: the half-inhibitory concentration (IC50) in assay [1] is 977 nM; in assay [2], 15 nM; in assay [3] it was 15 nM.
For the compound `Cc1nc(-n2nccn2)c(Cl)cc1NC(=O)c1cnn(-c2cc(=O)[nH]c3ccccc23)c1C(F)(F)F` [Cpd 358, N-(5-chloro-2-methyl-6-(2H-1,2,3-triazol-2-yl)pyridin-3-yl)-1-(2-oxo-1,2-dihydroquinolin-4-yl)-5-(trifluoromethyl)-1H-pyrazole-4-carboxamide], the IC50 was 19 nM in assay [1], 123 nM in assay [2] and 126 nM in assay [3].
The matching figures for `Cc1cnn(-c2nc(C)c(NC(=O)c3cnn(-c4cccc5c(=O)[nH]ccc45)c3C(F)(F)F)cc2Cl)n1` [Cpd 359, N-(5-chloro-2-methyl-6-(4-methyl-2H-1,2,3-triazol-2-yl)pyridin-3-yl)-1-(1-oxo-1,2-dihydroisoquinolin-5-yl)-5-(trifluoromethyl)-1H-pyrazole-4-carboxamide]: 28 nM, 98 nM and 91 nM.
Turning to `COc1cc(NC(=O)c2cnn(-c3cccc4c(=O)[nH]ccc34)c2C(F)(F)F)ccn1` [Cpd 360, N-(2-methoxypyridin-4-yl)-1-(1-oxo-1,2-dihydroisoquinolin-5-yl)-5-(trifluoromethyl)-1H-pyrazole-4-carboxamide], the IC50 in assay [1] is 2690 nM; in assay [2], 20 nM; in assay [3] it was 20 nM.
For the compound `O=C(Nc1ccnc(C(F)(F)F)c1)c1cnn(-c2cncc3sccc23)c1C(F)(F)F` [Cpd 364, 1-(thieno[2,3-c]pyridin-4-yl)-5-(trifluoromethyl)-N-(2-(trifluoromethyl)pyridin-4-yl)-1H-pyrazole-4-carboxamide], the IC50 in assay [1] turned out to be 98 nM; in assay [2], 28 nM; in assay [3], 31 nM.
As to `O=C(Nc1cnc(-n2nccn2)c(Cl)c1)c1cnn(-c2cnc(C3CCCO3)c3ccccc23)c1C(F)(F)F` (stereo not drawn) [Cpd 365, N-(5-chloro-6-(2H-1,2,3-triazol-2-yl)pyridin-3-yl)-1-(1-(tetrahydrofuran-2-yl)isoquinolin-4-yl)-5-(trifluoromethyl)-1H-pyrazole-4-carboxamide], the half-maximal inhibitory concentration (IC50) was determined as 60 nM in assay [1], 25 nM in assay [2] and 24 nM in assay [3].
For the compound `O=C(Nc1cnc(-n2nccn2)c(Cl)c1)c1cnn(-c2cnc(C3CCCO3)c3cccc(C4CCCO4)c23)c1C(F)(F)F` (stereo not drawn) [Cpd 366, 1-(1,5-bis(tetrahydrofuran-2-yl)isoquinolin-4-yl)-N-(5-chloro-6-(2H-1,2,3-triazol-2-yl)pyridin-3-yl)-5-(trifluoromethyl)-1H-pyrazole-4-carboxamide], the values for the IC50 in assay [1], in assay [2] and in assay [3] were 8910 nM, 107 nM and 89 nM, respectively.
With `O=C(Nc1cnc(-n2nccn2)c(Cl)c1)c1cnn(-c2cnc(C3COCCO3)c3ccccc23)c1C(F)(F)F` (stereo not drawn) [Cpd 367, 1-(1-(1,4-dioxan-2-yl)isoquinolin-4-yl)-N-(5-chloro-6-(2H-1,2,3-triazol-2-yl)pyridin-3-yl)-5-(trifluoromethyl)-1H-pyrazole-4-carboxamide], the 50% inhibitory concentration (IC50) in assay [1] was 110 nM; in assay [2] it was 115 nM; in assay [3], 98 nM.
As for `CCOC(C)c1ncc(-n2ncc(C(=O)Nc3cnc(-n4nccn4)c(Cl)c3)c2C(F)(F)F)c2ccccc12` (stereo not drawn) [Cpd 368, N-(5-chloro-6-(2H-1,2,3-triazol-2-yl)pyridin-3-yl)-1-(1-(1-ethoxyethyl)isoquinolin-4-yl)-5-(trifluoromethyl)-1H-pyrazole-4-carboxamide], the IC50 was 331 nM in assay [1], 170 nM in assay [2] and 79 nM in assay [3].
As to `O=C1CCC(c2ncc(-n3ncc(C(=O)Nc4cnc(-n5nccn5)c(Cl)c4)c3C(F)(F)F)c3ccccc23)N1` (stereo not drawn) [Cpd 369, N-(5-chloro-6-(2H-1,2,3-triazol-2-yl)pyridin-3-yl)-1-(1-(5-oxopyrrolidin-2-yl)isoquinolin-4-yl)-5-(trifluoromethyl)-1H-pyrazole-4-carboxamide], the IC50 is 155 nM in assay [1], 34 nM in assay [2] and 29 nM in assay [3].
As to `O=C(Nc1cnc(-n2nccn2)c(Cl)c1)c1cnn(-c2cccc3nc(C4CCCO4)ccc23)c1C(F)(F)F` (stereo not drawn) [Cpd 372, N-(5-chloro-6-(2H-1,2,3-triazol-2-yl)pyridin-3-yl)-1-(2-(tetrahydrofuran-2-yl)quinolin-5-yl)-5-(trifluoromethyl)-1H-pyrazole-4-carboxamide], the IC50 came to 2000 nM in assay [1], 12 nM in assay [2] and 12 nM in assay [3].
For the compound `CN(C=O)Cc1ncc(-n2ncc(C(=O)Nc3cnc(-n4nccn4)c(Cl)c3)c2C(F)(F)F)c2ccccc12` [Cpd 373, N-(5-chloro-6-(2H-1,2,3-triazol-2-yl)pyridin-3-yl)-1-(1-((N-methylformamido)methyl)isoquinolin-4-yl)-5-(trifluoromethyl)-1H-pyrazole-4-carboxamide], the figures for the IC50 in assay [1], in assay [2] and in assay [3] were 138 nM, 17 nM and 12 nM, respectively.
On to `CC(O)c1cc(-n2ncc(C(=O)Nc3cnc(-n4nccn4)c(Cl)c3)c2C(F)(F)F)c2ccccc2n1` (stereo not drawn) [Cpd 374, N-(5-chloro-6-(2H-1,2,3-triazol-2-yl)pyridin-3-yl)-1-(2-(1-hydroxyethyl)quinolin-4-yl)-5-(trifluoromethyl)-1H-pyrazole-4-carboxamide], for which the 50% inhibitory concentration (IC50) in assay [1] came to 87 nM; in assay [2], 72 nM; in assay [3], 40 nM.
Take `Cc1ncc(NC(=O)c2cnn(-c3cnc(N)c4ccccc34)c2C(F)(F)F)cc1C(F)(F)F` [Cpd 377, 1-(1-aminoisoquinolin-4-yl)-N-(6-methyl-5-(trifluoromethyl)pyridin-3-yl)-5-(trifluoromethyl)-1H-pyrazole-4-carboxamide]: the IC50 turned out to be 457 nM in assay [1], 52 nM in assay [2] and 56 nM in assay [3].
As for `O=C(Nc1cnc(-n2nccn2)c(Cl)c1)c1cnn(-c2cnc(C3CCCN3)c3ccccc23)c1C(F)(F)F` (stereo not drawn) [Cpd 380, N-(5-chloro-6-(2H-1,2,3-triazol-2-yl)pyridin-3-yl)-1-(1-(pyrrolidin-2-yl)isoquinolin-4-yl)-5-(trifluoromethyl)-1H-pyrazole-4-carboxamide], the values for the IC50 in assay [1], in assay [2] and in assay [3] were 447 nM, 46 nM and 24 nM, respectively.
`O=C(Nc1cnc(-n2nccn2)c(Cl)c1)c1cnn(-c2cc(C3CCN3)nc3ccccc23)c1C(F)(F)F` (stereo not drawn) [Cpd 382, 1-(2-(azetidin-2-yl)quinolin-4-yl)-N-(5-chloro-6-(2H-1,2,3-triazol-2-yl)pyridin-3-yl)-5-(trifluoromethyl)-1H-pyrazole-4-carboxamide]: the IC50 in assay [1] stood at 331 nM; in assay [2], 29 nM; in assay [3], 26 nM.
Take `CNC(=O)c1ncc(-n2ncc(C(=O)Nc3cnc(-n4nccn4)c(Cl)c3)c2C(F)(F)F)c2ccccc12` [Cpd 390, 4-(4-((5-chloro-6-(2H-1,2,3-triazol-2-yl)pyridin-3-yl)carbamoyl)-5-(trifluoromethyl)-1H-pyrazol-1-yl)-N-methylisoquinoline-1-carboxamide]: the values for the half-maximal inhibitory concentration (IC50) in assay [1], in assay [2] and in assay [3] were 102 nM, 98 nM and 83 nM, respectively.
For `O=C(Nc1cnc(-n2nccn2)c(Cl)c1)c1cnn(-c2cnc(C(F)F)c3ccccc23)c1C(F)(F)F` [Cpd 394, N-(5-chloro-6-(2H-1,2,3-triazol-2-yl)pyridin-3-yl)-1-(1-(difluoromethyl)isoquinolin-4-yl)-5-(trifluoromethyl)-1H-pyrazole-4-carboxamide], the values for the 50% inhibitory concentration (IC50) in assay [1], in assay [2] and in assay [3] were 95 nM, 50 nM and 36 nM, respectively.
Regarding `O=C(Nc1cnc(-n2nccn2)c(Cl)c1)c1cnn(-c2c[n+]([O-])cc3sccc23)c1C(F)(F)F` [Cpd 409, 4-(4-((5-chloro-6-(2H-1,2,3-triazol-2-yl)pyridin-3-yl)carbamoyl)-5-(trifluoromethyl)-1H-pyrazol-1-yl)thieno[2,3-c]pyridine 6-oxide], the 50% inhibitory concentration (IC50) in assay [1] is 2290 nM; in assay [2] it was 98 nM; in assay [3] it was 95 nM.
With `Cc1nc(-n2nccn2)c(Cl)cc1NC(=O)c1cnn(-c2c[n+]([O-])cc3sccc23)c1C(F)(F)F` [Cpd 410, 4-(4-((5-chloro-2-methyl-6-(2H-1,2,3-triazol-2-yl)pyridin-3-yl)carbamoyl)-5-(trifluoromethyl)-1H-pyrazol-1-yl)thieno[2,3-c]pyridine 6-oxide], the IC50 in assay [1] stood at 71 nM; in assay [2] it was 93 nM; in assay [3], 68 nM.
